Source: patent US20210228713A1, “TLR7 PEPTIDE CONJUGATES” (Apros Therapeutics, Inc., priority 2018, published 2021)
No end group written: not given here.

The sequences below were run against T1, human TLR7 (hTLR7) (Homo sapiens, UniProt Q9NYK1) (assay: HEK-Blue hTLR7 cell assay (NF-kB/AP-1 driven SEAP reporter)). Conditions: not given.
T1 construct: host or cells: HEK293 (HEK-Blue hTLR7)
T1 sequence (Q9NYK1 27-1049): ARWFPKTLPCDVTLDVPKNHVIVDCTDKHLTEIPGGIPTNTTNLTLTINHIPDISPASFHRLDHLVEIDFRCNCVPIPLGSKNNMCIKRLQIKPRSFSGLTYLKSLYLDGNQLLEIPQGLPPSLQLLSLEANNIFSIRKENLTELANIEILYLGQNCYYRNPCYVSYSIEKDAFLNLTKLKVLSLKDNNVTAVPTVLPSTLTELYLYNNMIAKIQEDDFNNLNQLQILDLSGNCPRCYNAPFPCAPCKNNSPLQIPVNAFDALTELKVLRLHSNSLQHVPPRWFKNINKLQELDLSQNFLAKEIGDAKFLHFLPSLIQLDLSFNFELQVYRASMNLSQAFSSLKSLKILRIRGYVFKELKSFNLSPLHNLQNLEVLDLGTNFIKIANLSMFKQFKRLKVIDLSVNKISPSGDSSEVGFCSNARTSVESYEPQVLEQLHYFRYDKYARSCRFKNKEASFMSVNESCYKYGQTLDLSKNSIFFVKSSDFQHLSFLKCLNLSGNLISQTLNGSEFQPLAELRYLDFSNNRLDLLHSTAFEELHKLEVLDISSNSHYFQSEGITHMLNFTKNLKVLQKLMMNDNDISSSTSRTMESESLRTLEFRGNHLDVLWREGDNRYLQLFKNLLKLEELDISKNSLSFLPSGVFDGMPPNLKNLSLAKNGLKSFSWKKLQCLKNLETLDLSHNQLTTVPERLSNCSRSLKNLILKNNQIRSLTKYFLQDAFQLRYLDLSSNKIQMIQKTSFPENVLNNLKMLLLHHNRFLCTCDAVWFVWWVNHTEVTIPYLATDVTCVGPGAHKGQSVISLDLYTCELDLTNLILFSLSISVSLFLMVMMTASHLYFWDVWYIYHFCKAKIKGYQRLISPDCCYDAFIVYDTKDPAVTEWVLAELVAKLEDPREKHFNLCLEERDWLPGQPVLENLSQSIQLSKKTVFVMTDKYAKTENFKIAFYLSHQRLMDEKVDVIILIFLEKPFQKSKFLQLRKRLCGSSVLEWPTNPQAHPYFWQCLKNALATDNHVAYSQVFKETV
Type: cell-based
Excerpt: HEK-Blue™ TLR7 cells were purchased from Invivogen (San Diego, Calif.). The following description was taken from the product information sheet.
“HEK-Blue™ hTLR7 cells are designed for studying the stimulation of human TLR7 (hTLR7) by monitoring the activation of NF-kB. HEK-Blue™ hTLR7 cells were obtained by co-transfection of the hTLR7 gene and an optimized secreted embryonic alkaline phosphatase (SEAP) reporter gene into HEK293 cells. The SEAP reporter gene is placed under the control of the IFN-b minimal promoter fused to five NF-kB and AP-1-binding sites. Stimulation with a TLR7 ligand activates NF-kB and AP-1 which induce the production of SEAP, which is detected by the HEK-Blue™ Detection cell culture medium.”
A typical assay protocol involved the following steps:
1. Cells were cultured according to the product information sheet.
2. 10 mM compound stock in DMSO were first diluted to 3 mM and then 3-fold serially diluted using DMSO to afford a 10-pt dilution.
3. 3 μl of the diluted DMSO were added to 57 μl HEK-Blue™ Detection media for a further 20-fold dilution.
4. 10 μl of the diluted compound in assay media were added into 40 μl cell culture (in HEK-Blue™ Detection media) in 384-well plate. Final cell concentration=8,000 cells per well.
5. The plates were incubated at 37° C. in 5% CO2 for 16 h. SEAP was determined using a spectrophotometer at 620-655 nm.
EQLSSVSSFERFEIFPKESSWPNHN [AP11] showed an EC50 of over 30 µM.
Work on ESLKISQAVHAAHAEINEAGREVVG [AP10] yielded an EC50 of over 30 µM.

Same assay, conditions: HEK TLR7 activity of unconjugated (naked) peptides; read-out: EC50, Peptide without Compound 1
Sequence LGRLMYDMYPHFMPTNLGPSEKRVW [AP8] has an EC50 of over 30 µM.
LLTRILTIPQSLDSWWTSLNFLGGS [AP9] showed an EC50 of over 30 µM.
Work on NRFVSIFASGPSQKIQLVNNNGSWH [AP5] yielded an EC50 of over 30 µM.
Sequence TLTCGFADLMGYIPLVGAPLGGAAR [AP3] has an EC50 of over 30 µM.
